Where two headings read alike, the source gives them in different places. Blank lines part the entries; values can stand above or below the compound they belong to.
Legend:
[1] = molecular target: T1, FKBP12 (Homo sapiens, UniProt P62942); assay: Competition fluorescence polarization assay with FITC-rapamycin tracer; type: binding
T1 construct: His-tag (HRV 3C cleavable) (cleaved yes); made in house; host or cells: Escherichia coli BL21(DE3)
Procedure: Compound binding affinity was determined using a competition fluorescence polarization assay. […] The assay buffer was 20 mM HEPES pH 7.5 and 0.01% Triton X-100. […] Data were fitted to a three-parameter sigmoidal curve to derive IC50 values. Ki of the compounds were calculated using a tool provided by S. Wang’s laboratory (http://www.umich.edu/~shaomengwanglab/software/calc_ki/index.html). Data were plotted in GraphPad Prism 9.0.

[2] = molecular target: T2, mTOR (Homo sapiens, UniProt P42345); assay: In vitro mTOR kinase inhibition assay (SelectScreen Z'-LYTE), with or without 10 µM FKBP12; type: biochemical; settings: for remaining activity at 4.95 pM / remaining activity at 15.2 pM / remaining activity at 45.7 pM / remaining activity at 0.000137 µM / remaining activity at 0.000412 µM / remaining activity at 0.00123 µM / remaining activity at 0.0111 µM / remaining activity at 0.0333 µM / remaining activity at […]: read-out: residual kinase activity (mTOR); for remaining activity at 0.0333 µM: 33.3 nM drug
T2 construct: We performed in vitro kinase assays with purified mTOR protein; purchased SelectScreen Services (Thermo Fisher Scientific)
Procedure: In vitro kinase inhibition assays were performed by SelectScreen Services (Thermo Fisher Scientific) using either Z’-LYTE (mTOR, Src, Csk, EGFR, HER2 and HGK), Adapta (LRRK2) or LanthaScreen (DDR2) assay format (standardized protocols can be accessed on the SelectScreen website: https://www.thermofisher.com/us/en/home/products-and-services/services/custom-services/screening-and-profiling-services/selectscreen-profiling-service/selectscreen-kinase-profiling-service.html. When indicated, recombinant FKBP12 protein was added to the assay mixture to a final concentration of 10 µM.

[3] = recombinant FKBP12, Extended Data Fig. 2, read-out: Kd (FKBP12)

T2 sequence (P42345 1360-2549 limits assumed): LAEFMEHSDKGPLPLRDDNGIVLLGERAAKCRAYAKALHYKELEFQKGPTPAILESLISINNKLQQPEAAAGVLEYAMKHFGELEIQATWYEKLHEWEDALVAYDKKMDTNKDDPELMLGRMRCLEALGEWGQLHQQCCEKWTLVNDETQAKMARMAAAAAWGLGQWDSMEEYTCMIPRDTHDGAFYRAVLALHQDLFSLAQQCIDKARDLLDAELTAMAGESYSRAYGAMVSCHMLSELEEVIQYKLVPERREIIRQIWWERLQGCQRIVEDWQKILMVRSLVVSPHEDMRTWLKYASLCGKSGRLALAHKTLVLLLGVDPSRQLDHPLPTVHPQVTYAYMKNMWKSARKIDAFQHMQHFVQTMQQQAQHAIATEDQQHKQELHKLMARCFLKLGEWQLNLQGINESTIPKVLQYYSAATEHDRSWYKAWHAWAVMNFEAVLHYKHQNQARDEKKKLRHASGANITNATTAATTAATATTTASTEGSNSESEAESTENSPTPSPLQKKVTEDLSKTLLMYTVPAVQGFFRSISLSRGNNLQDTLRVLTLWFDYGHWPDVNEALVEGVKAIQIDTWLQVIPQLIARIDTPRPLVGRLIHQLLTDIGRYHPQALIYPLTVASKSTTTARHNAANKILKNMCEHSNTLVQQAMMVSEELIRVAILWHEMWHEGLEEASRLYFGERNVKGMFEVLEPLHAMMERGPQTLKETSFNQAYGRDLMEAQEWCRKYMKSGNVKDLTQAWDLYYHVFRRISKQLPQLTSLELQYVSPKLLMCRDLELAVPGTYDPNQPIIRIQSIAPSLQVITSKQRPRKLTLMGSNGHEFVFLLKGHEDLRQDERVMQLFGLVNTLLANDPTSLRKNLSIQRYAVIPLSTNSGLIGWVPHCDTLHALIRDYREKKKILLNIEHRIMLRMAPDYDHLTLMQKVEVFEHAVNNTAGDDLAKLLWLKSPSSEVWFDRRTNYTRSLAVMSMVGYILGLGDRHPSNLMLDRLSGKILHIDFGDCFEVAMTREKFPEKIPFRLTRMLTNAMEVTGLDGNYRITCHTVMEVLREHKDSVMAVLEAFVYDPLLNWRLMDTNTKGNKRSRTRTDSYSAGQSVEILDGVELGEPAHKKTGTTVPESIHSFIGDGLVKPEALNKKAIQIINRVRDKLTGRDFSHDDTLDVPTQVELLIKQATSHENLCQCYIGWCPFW
T1 sequence (P62942 whole entry): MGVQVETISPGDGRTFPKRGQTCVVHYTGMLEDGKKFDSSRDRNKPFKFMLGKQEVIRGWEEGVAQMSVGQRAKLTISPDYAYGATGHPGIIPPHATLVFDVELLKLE

Compound: CO[C@H]1C[C@@H](C)C/C(C)=C/[C@@H](CCCc2ccncc2)C(=O)C[C@H](O)[C@@H](C)[C@@H](/C(C)=C/[C@@H]2CC[C@@H](O)[C@H](OC)C2)OC(=O)[C@@H]2CCCCN2C(=O)C(=O)[C@]2(O)O[C@H]1[C@@H](OC)C[C@H]2C [Compound 05-085]
Kd [1]: 1.5 nM

Compound: CCC(C)(C)C(=O)C(=O)N1CCCC[C@H]1C(=O)O[C@H](CCc1ccc(OC)c(OC)c1)c1cccc(OCCN)c1 [Compound 01-038]
Kd [1, 3]: 9.4 nM

Compound: CCC(C)(C)C(=O)C(=O)N1CCCC[C@H]1C(=O)O[C@H](CCc1ccc(OC)c(OC)c1)c1cccc(NC(=O)CS)c1 [Compound 02-055]
Kd [1, 3]: 64 nM

Compound: CCC(C)(C)C(=O)C(=O)N1CCCC[C@H]1C(=O)O[C@H](CCc1ccc(OC)c(OC)c1)c1cccc(NC(=O)CN2CCOCC2)c1 [Compound 01-043]
Kd [1, 3]: 15 nM

Compound: CCC(C)(C)C(=O)C(=O)N1CCCC[C@H]1C(=O)O[C@H](CCc1ccc(OC)c(OC)c1)c1cccc(NC(=O)C[N+](C)(C)C)c1 [Compound 01-025]
Kd [1, 3]: 95 nM

Compound: CO[C@H]1C[C@@H](C)C/C(C)=C/[C@@H](CCCC(=O)Nc2ccccn2)C(=O)C[C@H](O)[C@@H](C)[C@@H](/C(C)=C/[C@@H]2CC[C@@H](O)[C@H](OC)C2)OC(=O)[C@@H]2CCCCN2C(=O)C(=O)[C@]2(O)O[C@H]1[C@@H](OC)C[C@H]2C [Compound 05-064]
Kd [1]: 0.2 nM

Compound: CO[C@H]1C[C@@H](C)C/C(C)=C/[C@@H](CCCC(=O)O)C(=O)C[C@H](O)[C@@H](C)[C@@H](/C(C)=C/[C@@H]2CC[C@@H](O)[C@H](OC)C2)OC(=O)[C@@H]2CCCCN2C(=O)C(=O)[C@]2(O)O[C@H]1[C@@H](OC)C[C@H]2C [Compound 05-020]
Kd [1]: 1.5 nM

Compound: CCC(C)(C)C(=O)C(=O)N1CCCC[C@H]1C(=O)O[C@H](CCc1ccc(OC)c(OC)c1)c1cccc(NC(=O)CNN)c1 [Compound 01-070]
Kd [1, 3]: 21 nM

Compound: CCC(C)(C)C(=O)C(=O)N1CCCC[C@H]1C(=O)O[C@H](CCc1ccc(OC)c(OC)c1)c1cccc(N(CC(=O)O)CC(=O)O)c1 [Compound 01-060B]
Kd [1, 3]: 75 nM

Compound: CCC(C)(C)C(=O)C(=O)N1CCCC[C@H]1C(=O)O[C@H](CCc1ccc(OC)c(OC)c1)c1cccc(OCC(=O)O)c1 [Compound 01-041]
Kd [1, 3]: 38 nM

Compound: CO[C@H]1C[C@@H](C)C/C(C)=C/[C@@H](CCCSC[C@H](N)C(=O)O)C(=O)C[C@H](O)[C@@H](C)[C@@H](/C(C)=C/[C@@H]2CC[C@@H](O)[C@H](OC)C2)OC(=O)[C@@H]2CCCCN2C(=O)C(=O)[C@]2(O)O[C@H]1[C@@H](OC)C[C@H]2C [Compound 05-037]
Kd [1]: 8.7 nM

Compound: CCC(C)(C)C(=O)C(=O)N1CCCC[C@H]1C(=O)O[C@H](CCc1ccc(OC)c(OC)c1)c1cccc(NC(=O)CN(C)C)c1 [Compound 01-044]
Kd [1, 3]: 13 nM

Compound: CCC(C)(C)C(=O)C(=O)N1CCCC[C@H]1C(=O)O[C@H](CCc1ccc(OC)c(OC)c1)c1cccc(NC(=O)CNC(=N)N)c1 [Compound 01-065]
Kd [1, 3]: 38 nM

Compound: CCC(C)(C)C(=O)C(=O)N1CCCC[C@H]1C(=O)O[C@H](CCc1ccc(OC)c(OC)c1)c1cccc(NC(=O)CN)c1 [Compound 01-040]
Kd [1, 3]: 21 nM

Compound: CC(C)n1nc(-c2ccc3oc(N)nc3c2)c2c(N)ncnc21 [MLN128]
residual kinase activity (mTOR) ([2]; 0.00495 nM drug, +FKBP): 101
remaining activity at 4.95 pM ([2]; 0.00495 nM drug, +FKBP): 103%
residual kinase activity (mTOR) ([2]; 0.00495 nM drug, no FKBP): 101
remaining activity at 4.95 pM ([2]; 0.00495 nM drug, no FKBP): 105%
residual kinase activity (mTOR) ([2]; 0.0152 nM drug, +FKBP): 105
remaining activity at 15.2 pM ([2]; 0.0152 nM drug, +FKBP): 103%
residual kinase activity (mTOR) ([2]; 0.0152 nM drug, no FKBP): 106
remaining activity at 15.2 pM ([2]; 0.0152 nM drug, no FKBP): 101%
residual kinase activity (mTOR) ([2]; 0.0457 nM drug, +FKBP): 105
remaining activity at 45.7 pM ([2]; 0.0457 nM drug, +FKBP): 102%
residual kinase activity (mTOR) ([2]; 0.0457 nM drug, no FKBP): 104
remaining activity at 45.7 pM ([2]; 0.0457 nM drug, no FKBP): 102%
residual kinase activity (mTOR) ([2]; 0.137 nM drug, +FKBP): 101
remaining activity at 0.000137 µM ([2]; 0.137 nM drug, +FKBP): 106%
remaining activity at 0.000137 µM ([2]; 0.137 nM drug, no FKBP): 103%
residual kinase activity (mTOR) ([2]; 0.412 nM drug, +FKBP): 96
remaining activity at 0.000412 µM ([2]; 0.412 nM drug, +FKBP): 97%
residual kinase activity (mTOR) ([2]; 0.412 nM drug, no FKBP): 98
remaining activity at 0.000412 µM ([2]; 0.412 nM drug, no FKBP): 99%
residual kinase activity (mTOR) ([2]; 1.23 nM drug, +FKBP): 83
remaining activity at 0.00123 µM ([2]; 1.23 nM drug, +FKBP): 84%
residual kinase activity (mTOR) ([2]; 1.23 nM drug, no FKBP): 81
remaining activity at 0.00123 µM ([2]; 1.23 nM drug, no FKBP): 84%
remaining activity at 0.0111 µM ([2]; 11.1 nM drug, +FKBP): 19%
residual kinase activity (mTOR) ([2]; 11.1 nM drug, no FKBP): 17
remaining activity at 0.0111 µM ([2]; 11.1 nM drug, no FKBP): 18%
remaining activity at 0.0333 µM ([2]; +FKBP): 6%
remaining activity at 0.0333 µM ([2]; no FKBP): 6%
residual kinase activity (mTOR) ([2]; […] drug, +FKBP): 53
remaining activity at […] ([2]; […] drug, +FKBP): 49%
residual kinase activity (mTOR) ([2]; […] drug, no FKBP): 50
remaining activity at […] ([2]; […] drug, no FKBP): 48%

Compound: CCC(C)(C)C(=O)C(=O)N1CCCC[C@H]1C(=O)O[C@H](CCc1ccc(OC)c(OC)c1)c1cccc(NCCN)c1 [Compound 02-032]
Kd [1, 3]: 36 nM

Compound: C=CC(=O)Nc1cccc([C@@H](CCc2ccc(OC)c(OC)c2)OC(=O)[C@@H]2CCCCN2C(=O)C(=O)C(C)(C)CC)c1 [Compound 02-014]
Kd [1, 3]: 64 nM

Compound: CCC(C)(C)C(=O)C(=O)N1CCCC[C@H]1C(=O)O[C@H](CCc1ccc(OC)c(OC)c1)c1cccc(NC(=O)CN=[N+]=[N-])c1 [Compound 02-096]
Kd [1, 3]: 6 nM

Compound: CCC(C)(C)C(=O)C(=O)N1CCCC[C@H]1C(=O)O[C@H](CCc1ccc(OC)c(OC)c1)c1cccc(NC(=O)CN2CCN(C)CC2)c1 [Compound 01-072]
Kd [1, 3]: 13 nM

Compound: CCC(C)(C)C(=O)C(=O)N1CCCC[C@H]1C(=O)O[C@H](CCc1ccc(OC)c(OC)c1)c1cccc(NCC(=O)O)c1 [Compound 01-060A]
Kd [1, 3]: 46 nM

Further lines, results first:

Kd [1, 3]: 0.6 nM
Compound: CO[C@H]1C[C@@H](C)C/C(C)=C/[C@@H](C/C=C/c2cccc[n+]2[O-])C(=O)C[C@H](O)[C@@H](C)[C@@H](/C(C)=C/[C@@H]2CC[C@@H](O)[C@H](OC)C2)OC(=O)[C@@H]2CCCCN2C(=O)C(=O)[C@]2(O)O[C@H]1[C@@H](OC)C[C@H]2C [Compound 05-060]

Kd [1, 3]: 1.2 nM
Compound: CO[C@H]1C[C@@H](C)C/C(C)=C/[C@@H](C/C=C/c2ccncc2)C(=O)C[C@H](O)[C@@H](C)[C@@H](/C(C)=C/[C@@H]2CC[C@@H](O)[C@H](OC)C2)OC(=O)[C@@H]2CCCCN2C(=O)C(=O)[C@]2(O)O[C@H]1[C@@H](OC)C[C@H]2C [Compound 05-051]

Kd [1, 3]: 31 nM
Compound: CCC(C)(C)C(=O)C(=O)N1CCCC[C@H]1C(=O)O[C@H](CCc1ccc(OC)c(OC)c1)c1cccc(NC(=O)Cc2ccccn2)c1 [Compound 03-083]

Kd [1, 3]: 44 nM
Compound: CCC(C)(C)C(=O)C(=O)N1CCCC[C@H]1C(=O)O[C@H](CCc1ccc(OC)c(OC)c1)c1cccc(NC(=O)CCOCCOCCN)c1 [Compound 03-077]

Kd [1, 3]: 1.4 nM
Compound: CO[C@H]1C[C@@H](C)C/C(C)=C/[C@@H](CCCSCCN(C)C)C(=O)C[C@H](O)[C@@H](C)[C@@H](/C(C)=C/[C@@H]2CC[C@@H](O)[C@H](OC)C2)OC(=O)[C@@H]2CCCCN2C(=O)C(=O)[C@]2(O)O[C@H]1[C@@H](OC)C[C@H]2C [Compound 05-013]

Kd [1, 3]: 3.6 nM
Compound: CO[C@H]1C[C@@H](C)C/C(C)=C/[C@@H](C/C=C/c2ccccn2)C(=O)C[C@H](O)[C@@H](C)[C@@H](/C(C)=C/[C@@H]2CC[C@@H](O)[C@H](OC)C2)OC(=O)[C@@H]2CCCCN2C(=O)C(=O)[C@]2(O)O[C@H]1[C@@H](OC)C[C@H]2C [Compound 05-050]

Kd [1, 3]: 0.7 nM
Compound: CO[C@H]1C[C@@H](C)C/C(C)=C/[C@@H](CCCSCCN)C(=O)C[C@H](O)[C@@H](C)[C@@H](/C(C)=C/[C@@H]2CC[C@@H](O)[C@H](OC)C2)OC(=O)[C@@H]2CCCCN2C(=O)C(=O)[C@]2(O)O[C@H]1[C@@H](OC)C[C@H]2C [Compound 05-011]

Kd [1, 3]: 0.2 nM
Compound: CO[C@H]1C[C@@H](C)C/C(C)=C/[C@@H](C/C=C/c2cc[n+]([O-])cc2)C(=O)C[C@H](O)[C@@H](C)[C@@H](/C(C)=C/[C@@H]2CC[C@@H](O)[C@H](OC)C2)OC(=O)[C@@H]2CCCCN2C(=O)C(=O)[C@]2(O)O[C@H]1[C@@H](OC)C[C@H]2C [Compound 05-061]

Kd [1, 3]: 2.5 nM
Compound: CO[C@H]1C[C@@H](C)C/C(C)=C/[C@@H](CCCSCCNC(=O)CNc2ccccn2)C(=O)C[C@H](O)[C@@H](C)[C@@H](/C(C)=C/[C@@H]2CC[C@@H](O)[C@H](OC)C2)OC(=O)[C@@H]2CCCCN2C(=O)C(=O)[C@]2(O)O[C@H]1[C@@H](OC)C[C@H]2C [Compound 05-028]

Kd [1, 3]: 29 nM
Compound: CCC(C)(C)C(=O)C(=O)N1CCCC[C@H]1C(=O)O[C@H](CCc1ccc(OC)c(OC)c1)c1cccc(NC(=O)Cc2cccc[n+]2[O-])c1 [Compound 03-087]

Kd [1, 3]: 19 nM
Compound: CCC(C)(C)C(=O)C(=O)N1CCCC[C@H]1C(=O)O[C@H](CCc1ccc(OC)c(OC)c1)c1cccc(NC(=O)CCOCCN)c1 [Compound 03-084]

Kd [1, 3]: 2.5 nM
Compound: CO[C@H]1C[C@@H](C)C/C(C)=C/[C@@H](CCCc2cc[n+]([O-])cc2)C(=O)C[C@H](O)[C@@H](C)[C@@H](/C(C)=C/[C@@H]2CC[C@@H](O)[C@H](OC)C2)OC(=O)[C@@H]2CCCCN2C(=O)C(=O)[C@]2(O)O[C@H]1[C@@H](OC)C[C@H]2C [Compound 05-092]

— article PMC9492542, “Brain-restricted mTOR inhibition with binary pharmacology” (Nature, 2022)
